From patent publication US20080227730A1, “9A-Carbamoyl and Thiocarbamoyl Azalides With Antimalarial Activity” (GLAXOSMITHKLINE ISTRAZIVACKI CENTAR ZAGREB D.O.O., priority 2005, published 2008)
Values after ≈ are worked out from the molar mass of the structure shown.

How the values were obtained:
[1] = test system: Plasmodium falciparum W-2 (CDC/Indochina III); test: In vitro antimalarial [3H]-hypoxanthine incorporation serial dilution assay, clone W2; format: cell-based; conditions: P. falciparum W2 clone, parasites exposed for 72 hours, azithromycin value averaged
Excerpt: (§1) The in vitro screens for intrinsic antimalarial activity were based on modifications of the procedures described by Desjardins R E, Canfield C J, Haynes J D, Chulay J D. (Quantitative assessment of antimalarial activity in vitro by a semiautomated microdilution technique. Antimicrob Agents Chemother. 1979 December; 16(6):710-8.), Chulay J D, Haynes J D, Diggs C L. (Plasmodium falciparum: Assessment of in vitro growth by [3H]hypoxanthine incorporation. Exp. Parasitol. 1983 55:138-146.), and Milhous W N, Weatherly N F, Bowdre J H, Desjardins R E. (In vitro activities of and mechanisms of resistance to antifol antimalarial drugs. Antimicrob Agents Chemother. 1985 April; 27(4):525-30.). The system was limited to the assessment of the intrinsic activity against the erythrocytic asexual life cycle (blood schizontocides). Two Plasmodium falciparum clones from CDC/Indochina III (W-2) and CDC/Sierra Leone I (D-6) (Oduola A M, Weatherly N F, Bowdre J H, Desjardins R E. Plasmodium falciparum: cloning by single-erythrocyte micromanipulation and heterogeneity in vitro. Exp Parasitol. 1988 66(1):86-95.) were used for all assays. TM91C235, a multiple drug resistant isolate from Thailand, was used for the prescreening assay. W-2 is resistant to chloroquine, quinine, and pyrimethamine and susceptible to mefloquine. D-6 tends to be more resistant to mefloquine and susceptible to chloroquine, quinine, and pyrimethamine. All documents cited in this paragraph are incorporated by reference in their entirety.
(§2) All parasites were maintained in continuous long term cultures in RPMI-1640 medium supplemented with 6% washed human A positive (A+)(erythrocytes, 25 mM Hepes, […], and 10% heat inactivated A+ human plasma or ALBUMAX® (lipid-rich bovine serum albumin; Invitrogen, Carlsbad, Calif.). All cultures and assays were conducted at 37° C. under an atmosphere of 5% CO2 and 5% O2, with a balance of N2.
(§3) The prescreening assay uses TM91C235 diluted at a 0.4% parasitemia in a 1% hematocrit in folic acid free and p-aminobenzoic acid free media RPMI-1640 and ALBUMAX®. One mg of the compound is typically dissolved in 100 μl of dimethyl sulfoxide (DMSO). The compound is further diluted in culture medium (FF) with ALBUMAX® for the first initial starting concentration. The rest of the stock drug solution was kept at −70° C. The isolate was preexposed, in duplicate, at three concentrations (25,000 ng/ml, 2,500 ng/ml, and 25 ng/ml) of the test compound for 48 hr in a 96-well microtiter plate (MTP) using the BIOMEK® 2000 automated laboratory workstation. Each MTP contains chloroquine as control to assess the relative activity of the compound and to monitor the response of TM91C235.
(§4) After the preincubation, [^3H]-hypoxanthine was added to each well of the MTP. (The assay relies on the incorporation of radiolabeled hypoxanthine by the parasites, which indicates reproduction, and inhibition of isotope incorporation was attributed to activity of known or candidate antimalarial drugs). After 72 hr of total incubation time, the MTP were frozen to lyse the erythrocytes and parasites. The parasite DNA was recovered by harvesting the lysate onto glass-fiber filter plates using a Packard FilterMate™ Cell Harvester. The radioactivity was counted on a Packard TopCount™ microplate scintillation counter. The results were recorded as counts per minutes (CPM) per well at each drug concentration divided by the arithmetic mean of the CPM from the three untreated infection parasite control wells.
(§5) The serial dilution assay was conducted using the same assay conditions and stock solution of the compound used for the preliminary screen, described above. Both the D-6 and the W-2 clones were used. The compounds were diluted two-fold over 11 different concentration ranges with a starting concentration that was based on the preliminary screen. […]

[2] = test system: Plasmodium falciparum D-6 (CDC/Sierra Leone I); test: In vitro antimalarial [3H]-hypoxanthine incorporation serial dilution assay, clone D6; format: cell-based; conditions: P. falciparum D6 clone, parasites exposed for 72 hours, azithromycin value averaged
Excerpt: as §1, §2, §3, §4, §5

[3] = test system: Plasmodium falciparum TM91C235; test: In vitro antimalarial [3H]-hypoxanthine incorporation assay, strain TM91C235; format: cell-based; conditions: P. falciparum TM91C235 (multiple drug resistant isolate from Thailand), parasites exposed for 72 hours, azithromycin value averaged
Excerpt: as §1, §2, §3, §4, §5

Plasmodium vivax = conditions: non-immune patients, as compared to controls; cited from earlier work
Plasinodium falciparum = conditions: non-immune patients, Plasmodium falciparum, as compared to controls; cited from earlier work
Plasmodium cynomolgi = conditions: rhesus monkey; cited from earlier work
[4] = test system: Plasmodium yoelii nigeriensis; conditions: cited from earlier work
Plasmodium berghei = conditions: cited from earlier work

Row | Molecule | IC50 [1] [µg/mL] | IC50 [2] [µg/mL] | IC50 [3] [µg/mL] | prophylactic efficacy (Plasmodium vivax) [%] | prophylactic efficacy (Plasinodium falciparum) [%] | efficacy in monkey model (Plasmodium cynomolgi) | activity in mouse model [4] | activity in mouse model (Plasmodium berghei)
1 | CC[C@H]1OC(=O)[C@H](C)[C@@H](O)[C@H](C)[C@@H](O[C@@H]2O[C@H](C)C[C@H](N(C)C)[C@H]2O)[C@](C)(O)C[C@@H](C)CN(C(=O)Nc2ccc(S(=O)(=O)Nc3cc(C)on3)cc2)[C@H](C)[C@@H](O)[C@]1(C)O [Compound 5] | > 1.76 | 0.0523 (≈ 0.0611 µM) | > 1.62 |  |  |  |  | 
2 | CC[C@H]1OC(=O)[C@H](C)[C@@H](O[C@H]2C[C@@](C)(OC)[C@@H](O)[C@H](C)O2)[C@H](C)[C@@H](O[C@@H]2O[C@H](C)C[C@H](N(C)C)[C@H]2O)[C@](C)(O)C[C@@H](C)CN(C(=S)Nc2cccc(Cl)c2)[C@H](C)[C@@H](O)[C@]1(C)O [Compound 9] | 1.5 (≈ 1.66 µM) | 0.762 (≈ 0.843 µM) |  |  |  |  |  | 
3 | CC[C@H]1OC(=O)[C@H](C)[C@@H](O[C@H]2C[C@@](C)(OC)[C@@H](O)[C@H](C)O2)[C@H](C)[C@@H](O[C@@H]2O[C@H](C)C[C@H](N(C)C)[C@H]2O)[C@](C)(O)C[C@@H](C)CN(C(=S)NCc2ccccc2)[C@H](C)[C@@H](O)[C@]1(C)O [Compound 11] | 0.386 (≈ 0.436 µM) | 0.253 (≈ 0.286 µM) | 0.304 (≈ 0.344 µM) |  |  |  |  | 
4 | CC[C@H]1OC(=O)[C@H](C)[C@@H](O[C@H]2C[C@@](C)(OC)[C@@H](O)[C@H](C)O2)[C@H](C)[C@@H](O[C@@H]2O[C@H](C)C[C@H](N(C)C)[C@H]2O)[C@](C)(O)C[C@@H](C)CN(C(=O)Nc2ccc(S(=O)(=O)Nc3ccccc3)cc2)[C@H](C)[C@@H](O)[C@]1(C)O [Compound 1] | 0.448 (≈ 0.444 µM) | 0.428 (≈ 0.424 µM) | 0.299 (≈ 0.296 µM) |  |  |  |  | 
5 | CC[C@H]1OC(=O)[C@H](C)[C@@H](O[C@H]2C[C@@](C)(OC)[C@@H](O)[C@H](C)O2)[C@H](C)[C@@H](O[C@@H]2O[C@H](C)C[C@H](N(C)C)[C@H]2OC(C)=O)[C@](C)(O)C[C@@H](C)CN(C(=O)NC(C)C)[C@H](C)[C@@H](O)[C@]1(C)O [Compound 10] | > 1.76 | > 0.797 | 0.353 (≈ 0.41 µM) |  |  |  |  | 
6 | CC[C@H]1OC(=O)[C@H](C)[C@@H](O[C@H]2C[C@@](C)(OC)[C@@H](O)[C@H](C)O2)[C@H](C)[C@@H](O[C@@H]2O[C@H](C)C[C@H](N(C)C)[C@H]2O)[C@](C)(O)C[C@@H](C)CN(C)[C@H](C)[C@@H](O)[C@]1(C)O [azithromycin] |  |  |  | 98.9 | 71.6 | active |  | 
7 | CC[C@H]1OC(=O)[C@H](C)[C@@H](O[C@H]2C[C@@](C)(OC)[C@@H](O)[C@H](C)O2)[C@H](C)[C@@H](O[C@@H]2O[C@H](C)C[C@H](N(C)C)[C@H]2O)[C@](C)(O)C[C@@H](C)CN(C(=O)Nc2cccc(Cl)c2)[C@H](C)[C@@H](O)[C@]1(C)O [Compound 7] | 1.22 (≈ 1.37 µM) | 0.583 (≈ 0.656 µM) |  |  |  |  |  | 
8 | midecamycinin |  |  |  |  |  | no efficacy | active | active
9 | CC[C@H]1OC(=O)[C@H](C)[C@@H](O[C@H]2C[C@@](C)(OC)[C@@H](O)[C@H](C)O2)[C@H](C)[C@@H](O[C@@H]2O[C@H](C)C[C@H](N(C)C)[C@H]2O)[C@](C)(O)C[C@@H](C)CN(C(=O)Nc2ccc(S(=O)(=O)Nc3ccccn3)cc2)[C@H](C)[C@@H](O)[C@]1(C)O [Compound 2] | > 1.76 | 0.251 (≈ 0.248 µM) | 1.03 (≈ 1.02 µM) |  |  |  |  | 
10 | CC[C@H]1OC(=O)[C@H](C)[C@@H](O[C@H]2C[C@@](C)(OC)[C@@H](O)[C@H](C)O2)[C@H](C)[C@@H](O[C@@H]2O[C@H](C)C[C@H](N(C)C)[C@H]2O)[C@](C)(O)C[C@@H](C)CN(C(=O)Nc2cccc3ccccc23)[C@H](C)[C@@H](O)[C@]1(C)O [Compound 8] | 1.9 (≈ 2.11 µM) | 0.751 (≈ 0.831 µM) | 0.712 (≈ 0.788 µM) |  |  |  |  | 
11 | CC[C@H]1OC(=O)[C@H](C)[C@@H](O[C@H]2C[C@@](C)(OC)[C@@H](O)[C@H](C)O2)[C@H](C)[C@@H](O[C@@H]2O[C@H](C)C[C@H](N(C)C)[C@H]2O)[C@](C)(O)C[C@@H](C)CN(C(=O)Nc2ccc(S(=O)(=O)Nc3cc(C)on3)cc2)[C@H](C)[C@@H](O)[C@]1(C)O [Compound 4] | 1.59 (≈ 1.57 µM) | 0.12 (≈ 0.118 µM) | > 1.62 |  |  |  |  | 
12 | CC[C@H]1OC(=O)[C@H](C)[C@@H](O[C@H]2C[C@@](C)(OC)[C@@H](O)[C@H](C)O2)[C@H](C)[C@@H](O[C@@H]2O[C@H](C)C[C@H](N(C)C)[C@H]2O)[C@](C)(O)C[C@@H](C)CN(C(=O)NS(=O)(=O)c2ccccc2Cl)[C@H](C)[C@@H](O)[C@]1(C)O [Compound 3] | 1.43 (≈ 1.5 µM) | 1.11 (≈ 1.17 µM) | > 1.62 |  |  |  |  | 
13 | CC[C@H]1OC(=O)[C@H](C)[C@@H](O)[C@H](C)[C@@H](O[C@@H]2O[C@H](C)C[C@H](N(C)C)[C@H]2O)[C@](C)(O)C[C@@H](C)CN(C(=O)Nc2ccc(S(=O)(=O)Nc3ccccn3)cc2)[C@H](C)[C@@H](O)[C@]1(C)O [Compound 6] | > 1.76 | 0.0908 (≈ 0.107 µM) | > 1.62 |  |  |  |  | 
